Among the data in patent US5457030A, “Method and composition for determining antimicrobial susceptibility of the majority clinically significant Gram postitive organism” (MicroScan, Inc., priority 1993, dated 1995) are redissolution after dehydration, activity and MIC values, retold here.

A short description of data set [1]: Redissolution of fluorogenic substrate after dehydration. It counts as physicochemical. An excerpt:
In the Sensititre™ procedure the substrates mixture consists of alanyl-7-amido-4-methylcoumarin, 4-methylumebelliferyl phosphate and 4-methylumbelliferyl nonanoate. […] Moreover, a special procedure of drying the substrate mixture on a solid carrier in combination with an emulsifying agent was the preferred method in the EP #0,09187 description. Removal of this compound from the mixture allows easy preparation and aliquoting of the fluorogenic substrate mixture. […] The current fluorogenic substrate mixture also allows for testing of a larger range of Gram positive species than previously described. Additionally, the use of the autoSCAN®-W/A allows monitoring of growth for between 31/2 and 15 hours, determination of minimum inhibitory concentration occurring only when sufficient growth has been achieved. This ensures that the minimum inhibitory concentration determinations of each isolate is determined at the optimal time.

The test system of data set [2] is Enterococcus faecalis. The data set is described as follows: Percent fluorescence (growth) in wells containing antimicrobial agents, Example 1 (Table 6). It counts as cell-based. The note with it: Enterococcus faecalis, read-out: percent fluorescence. The protocol:
(§1) A primary inoculum suspension of a bacterial isolate in saline-pluronic, equivalent to a 0.5 McFarland turbidity standard is prepared. The final inoculum suspension is prepared by diluting a 0.3 ml aliquot of the primary suspension in 25 ml of Rapid Pos Inoculum Broth (B1015-14, Baxter Diagnostics Inc., MicroScan Division, West Sacramento, Calif.). A 115 μl of the final inoculum is added to the growth compartment which contains dried material of fluorogenic enzyme substrates equivalent to 0.023 mM leucine-7-amido-4-methylcoumarin, 0.012 mM phenylalanine-7-amido-4-methylcoumarin and 0.058 mM methylumbelliferyl phosphate and 1.15 mM HEPES buffer at pH 7.0. The final inoculum is also added to a number of compartments containing dried material identical to that in the growth well and different concentrations of an antimicrobial agent. An aliquot of the final inoculum is also added to a compartment, containing only dried HEPES buffer, acting as a control. The inoculated multicompartment device (panel) is inserted in the autoSCAN®-W/A. The fluorescence of each compartment is measured at predetermined times and a Growth Index is calculated by dividing the fluorescence of the growth compartment by that of the negative control compartment.
^FL growth - ^FL control
(§2) If the value of the Growth Index is equal to or exceeds a specified value, the Minimum Inhibitory Concentration for every antimicrobial agent present in the multicompartment device is calculated. Otherwise the device is returned to its position and measured again at the next read time. The read times in this example are 3.5, 4.5, 5.5, 7.0, 8.0, 11.0, and 15.0 hours. For calculation of minimum inhibitory concentration, the percent fluorescence of compartments containing the different concentrations of the antimicrobial agent is calculated by subtracting from each compartment the fluorescence of the control well and dividing it by the delta fluorescence of the growth compartment, obtained by subtracting the fluorescence of the negative control compartment from the fluorescence of the growth compartment. The minimum inhibitory concentration is calculated using a mathematical model specific for each concentration range of the antimicrobial agent. Using a mathematical model based on discriminate functional analysis, the minimum inhibitory concentration of each antimicrobial agent, for the organism tested, can be determined. Utilization of a discriminate function analysis model in microbiological pattern recognition is described in S. Bascomb, Computers in Taxonomy and Systematics, p. 65-102 In T. N. Bryant and J. W. T. Wimpenny (Ed.), Computers in Microbiology, a Practical Approach (IRL Press, Oxford). In an alternative embodiment the minimum inhibitory concentration for each antimicrobial agent for the organism tested can be determined by a breakpoint or threshold method or linear regression analysis. J. McKie, et al., Antimicrobial Agents and Chemotherapy (1980) v. 17, 813-823.
(§3) In Example 1, the growth of Enterococcus faecalis in wells containing specified amounts of antimicrobial agents is estimated by measurement of fluorescence. In Table 6, the percent fluorescence at different concentrations of antimicrobial agents is reported. For example, 0.12, 0.25, 0.5, 1, 2, 4 and 8 μg/mL of ampicillin (Am) were present in the microdilution wells.
The numbers 105, 105, 67, 7, 6, 5, 6 are percent fluorescence values as calculated in […]. These figures are used to determine susceptibility according to the methods discussed on pages 12 and 13.

Data set [3] has as its system Enterococcus faecalis. Put plainly: Minimum inhibitory concentration determination, Example 1 (Table 7). It counts as cell-based. The note with it: Enterococcus faecalis. The protocol: as §1, §2, §3
In Table 7, the minimum inhibitory concentration for Example 1 are reported.

[4] abbreviates: read-out: concentration at which organism was found to be susceptible.
Where [5] appears, read: read-out: minimum inhibitory concentration.

In brackets after ≈: the same amount, converted by molar mass. Where two headings read alike, the source gives them in different places.

As to `CCCCCCCCC(=O)Oc1ccc2c(C)cc(=O)oc2c1` [4-methylumbelliferyl nonanoate], in data set [1], the redissolution after dehydration result is reported as “difficult to redissolve evenly after dehydration”.

As for `CC[C@H]1OC(=O)[C@H](C)[C@@H](O[C@H]2C[C@@](C)(OC)[C@@H](O)[C@H](C)O2)[C@H](C)[C@@H](O[C@@H]2O[C@H](C)C[C@H](N(C)C)[C@H]2O)[C@](C)(O)C[C@@H](C)C(=O)[C@H](C)[C@@H](O)[C@]1(C)O` [Erythromycin], in the data set with Enterococcus faecalis [2], the activity at 0.25 µg/mL worked out at 59%, the activity at 0.5 µg/mL was 9%, the activity at 1 µg/mL came out at 5% and the activity at 2 µg/mL is 5%. Moreover, the activity at 4 µg/mL in the data set on Enterococcus faecalis [2] amounted to 4%. In the data set with Enterococcus faecalis [3] (setting [4]), the MIC was determined as 4 µg/mL (≈ 5.45 µM). Besides, in the data set with Enterococcus faecalis [3] (setting [5]), the MIC was found to be 4 µg/mL (≈ 5.45 µM).

Consider `CN(C)C1C(=O)C(C(N)=O)=C(O)C2(O)C(=O)C3=C(O)c4c(O)cccc4C(C)(O)C3CC12` (stereo not shown) [Tetracycline], for which, in the data set on Enterococcus faecalis [2], the activity at 0.5 µg/mL is 91%, the activity at 1 µg/mL is 85%, the activity at 2 µg/mL came out at 79% and the activity at 4 µg/mL is 71%. Further, in the data set on Enterococcus faecalis [2], the activity at 8 µg/mL was 62% and the activity at 128 µg/mL came out at 37%. Further, in the data set on Enterococcus faecalis [3] (setting [4]), the MIC worked out at 128 µg/mL (≈ 288 µM). For the same compound, the MIC with Enterococcus faecalis [3] (setting [5]) was 128 µg/mL (≈ 288 µM).
